One data set has as its system HepG2 cells. As to the kind of experiment: MTT cytotoxicity assay in HepG2 cells. Format: cell-based, human. The settings on record: human, 24 h. As to the method:
(§1) HepG2 cells are seeded at between 1×10^4 and 2.5×10^4 cells/well in a 96-well microtitre plate. […] The formation of resorufin is quantified by fluorometry with a fluorescence plate reader. Fluorescence is determined at λex 570 nm and λem 590 nm. […] The remaining (i.e. all cells present at the beginning of analysis, since only supernatant is taken to assay EROD) live cells are subsequently utilized for the MIT cytotoxicity assay. […] The medium is carefully removed, then MIT formazan is solubilized by adding 200 μl of DMSO and subsequently mixed on a plate shaker. The absorbance is measured spectrophotometrically at 550 nm and background absorbance at 690 nm is subtracted.
(In general: Tetrazolium assays rely on reduction of a dye to a coloured formazan, in cell work by metabolically active cells.)

For a further data set, the system named is human sebocyte cells. The experiment in a line: MTT cytotoxicity assay in human cultured sebocytes. Format: cell-based. The method, then: (§2) Cells are seeded at between 1×10^4 and 2.5×10^4 cells/well in a 96-well microtitre plate. […] The formation of resorufin is quantified by fluorometry with a fluorescence plate reader. Fluorescence is determined at λex 570 nm and […]. The amount of resorufin is calculated from a standard curve generated using 0 to 1 μM resorufin in water at 34 log dilutions. The remaining (i.e. all cells present at the beginning of analysis, since only supernatant is taken to assay EROD) live cells are subsequently utilized for the MIT cytotoxicity assay. MIT is made up in serum-free medium at 5 mg/ml. then added to the cells giving a final concentration of 10% (0.5 mg/ml MIT final) then incubated for 2 h. The medium is carefully removed, then MTT formazan is solubilized by adding 200 μl of DMSO and subsequently mixed on a plate shaker. The absorbance is measured spectrophotometrically at 550 nm and background absorbance at 690 nm is subtracted. A standard curve generated using MTT formazan (dissolved in DMSO) from 0-200 μM (0, 2, 5, 10, 20, 50, 100, 200 μM) is used to calculate the final experimental values which are then expressed as (μmol resorufin/mol MIT formazan) or as fold-induction compared to solvent.

For data set [1], the target named is T1, Aryl Hydrocarbon Receptor (Homo sapiens, UniProt P35869).
T1 construct: endogenous in cells; host or cells: Hep G2 cells stably transduced with the lentivector plox-XRE TATA-Luc (reporter only)
T1 sequence (P35869 11-848): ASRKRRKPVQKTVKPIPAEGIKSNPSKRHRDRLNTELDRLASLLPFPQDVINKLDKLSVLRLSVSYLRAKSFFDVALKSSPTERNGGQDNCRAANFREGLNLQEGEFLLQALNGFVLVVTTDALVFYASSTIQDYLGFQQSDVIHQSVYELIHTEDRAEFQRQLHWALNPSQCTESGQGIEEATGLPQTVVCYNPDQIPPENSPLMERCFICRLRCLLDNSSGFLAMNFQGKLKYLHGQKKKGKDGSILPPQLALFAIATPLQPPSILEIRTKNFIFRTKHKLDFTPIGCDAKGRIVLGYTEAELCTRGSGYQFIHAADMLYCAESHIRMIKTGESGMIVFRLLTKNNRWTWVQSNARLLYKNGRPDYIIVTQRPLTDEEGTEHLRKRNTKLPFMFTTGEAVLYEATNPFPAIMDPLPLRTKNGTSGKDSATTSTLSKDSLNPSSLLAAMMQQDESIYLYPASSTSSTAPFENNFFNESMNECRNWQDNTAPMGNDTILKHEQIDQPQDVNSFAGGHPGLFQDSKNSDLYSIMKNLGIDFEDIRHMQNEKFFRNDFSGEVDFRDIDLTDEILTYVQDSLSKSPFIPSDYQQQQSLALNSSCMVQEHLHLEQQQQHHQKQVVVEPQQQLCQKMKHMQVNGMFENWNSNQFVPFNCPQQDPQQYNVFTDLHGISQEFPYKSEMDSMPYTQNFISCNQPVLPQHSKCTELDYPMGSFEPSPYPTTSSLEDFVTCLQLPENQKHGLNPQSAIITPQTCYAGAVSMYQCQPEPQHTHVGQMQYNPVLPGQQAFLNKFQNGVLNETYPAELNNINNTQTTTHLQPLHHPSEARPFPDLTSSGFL
As to the kind of experiment: AhR activation luciferase reporter in Hep G2-plox-XRE TATA-Luc cells. Format: cell-based. As to conditions: 24 h, 1-10 uM. The method, then:
AhR activation is measured in HEP G2 cells (hepatocytes, Hep G2 is a human liver carcinoma cell line) stably transfected with the lentivector plox-XRE TATA-Luc. The Hep G2 cells are cultured in a growing media consisting of DMEM (Gibco)+10% fetal bovine serum+penicillin+streptomycin. At D0, the Hep G2 cells are seeded into 12-well plates in proportions of approximately 30,000 cells/cm^2. After 24 h, the medium is replaced with fresh medium and the cells are transduced with the lentivector plox-XRE TATA-Luc. After 48 h, the cells are subcultured and maintained in culture, and tested for their reactivity to 3-phenyl-1H-benzo[f]chromen-1-one. The tests are carried out using the luciferase reporter assay system kit from Promega. At D0, the cells are seeded at a density of approximately 60% confluence, and then treated, at D1, with the test substance diluted to various concentrations in the appropriate culture medium. At […], the cells are lysed in CLB buffer, and the lysate is clarified by centrifugation for 5 min at 10 000 g. The luciferase activity is measured in 20 microliters of lysate as recommended by the supplier, using the luminoskan luminometer (Thermo). […] Data is processed and EC50's can be calculated from standard data monitoring software.
On the technique in general: Reporter assays use an easily measured gene product as a stand-in for the process of interest.

Data set [2] deals with T1, Aryl Hydrocarbon Receptor. The experiment in a line: AhR activation luciferase reporter in NHK-plox-XRE TATA-Luc cells. Format: cell-based. The settings on record: 24 h, 1-10 uM. As to the method:
AhR activation is also measured in human skin cells such as normal human keratinocytes (NHK cells) or A431 epidermoid cells stably transfected with the lentivector plox-XRE TATA-Luc. The NHK cells are cultured in a specific keratinocyte SFM medium (Gibco)+penicillin+streptomycin. At D0, the NHK cells are seeded into 6-well plates in a proportion of approximately […]. After 24 h, the medium is replaced with fresh medium and the cells are transduced with the lentivector plox-XRE TATA-Luc. After 48 h, the cells are subcultured and maintained in culture, and tested for their reactivity to 3-phenyl-1H-benzo[f]chromen-1-one. The tests are carried out using the luciferase reporter assay system kit from Promega. At D0, the cells are seeded at a density of approximately 60% confluence, and then treated, at D1, with the test substance diluted to various concentrations in the appropriate culture medium. At D2, the cells are lysed in CLB buffer, and the lysate is clarified by centrifugation for 5 min at 10 000 g. The luciferase activity is measured in 20 microliters of lysate as recommended by the supplier, using the luminoskan luminometer (Thermo). […] Data is processed and EC50's can be calculated from standard data monitoring software.

Data set [3] has as its system CYP1A1. As to the kind of experiment: EROD assay in HepG2 cells (cleavage of 7-ethoxyresorufin to resorufin). Format: cell-based, human. As to conditions: human, probe 7-ethoxyresorufin (8 μM). The method, then: as §1
The subject of data set [4] is CYP1A1. The experiment in a line: EROD assay in human cultured sebocytes. Format: cell-based. As to conditions: cultured sebocytes, probe 7-ethoxyresorufin (8 μM). The method, then:
as §2

A further data set has as its system CYP1A1 mRNA. The experiment in a line: CYP1A1 mRNA assay in HepG2 cells (RT-PCR). Format: cell-based, human. The settings on record: 10 uM. As to the method:
HepG2 cells (American Type Culture Collection (ATCC), Manassas, Va.) were cultured using Eagle's minimal essential medium (ATCC), supplemented with 10% fetal calf serum (Invitrogen Life Technologies). […] Cells were plated at a seeding density of 3.8×10^5 cells per well on 6-well plates (Corning Costar, NY, U.S.A.). Cells were allowed to attach for 24 h in a 37° C. humidified incubator with a 5% CO2 atmosphere. Media was replaced with that containing test agents or vehicle (0.1% dimethylsulphoxide) and cells incubated for a further 24 h. Following the 24 h incubation with test agents, media was removed and RNA prepared using the Purelink RNA mini kit (ThermoFischer, Carlsbad, Calif.). Nucleic acid concentration was determined using a Nanodrop™ spectrophotometer (ThermoScientific) by measuring the OD at 260 nm and RNA purity was evaluated using the OD 260/280 nm ratio. 1 μg RNA was reverse transcribed using SuperScript®VILO™ (ThermoFischer) with cDNA synthesis performed using the following parameters: 10 min at 25° C., 2 h at 42° C., 5 min at 85° C. (deactivation) followed by a completion temperature of 4° C. […] Each sample (1 μl) was pipetted into a 96-well optical reaction plate (Applied Biosystems, Carlsbad, Calif.). […] Results were analyzed by calculating the fold change of CYP1A1 mRNA levels normalized to 18S rRNA (ΔΔCt) in compound treated cells or tissues compared to vehicle levels.

The subject of the next data set is sebaceous glands. The experiment in a line: Mouse ear assay for sebaceous gland prevalence. Format: in vivo, C57BL/6J mice. As to conditions: topical 1% solution in DMSO:acetone 50:50, twice a day for five days, vs controls. As to the method: C57BL/6J male mice (Harlan Models), approximately 4-5 weeks of age, body weight 20-30 g, were acclimatized (individually housed) for 5 days in a 12 hour light/dark cycle standard laboratory environment (T=20-24° C., relative humidity 30-70%, 15-20 air changes per hour) with access to water and standard rodent chow (Harlan Tekiad 2014C supplied by Harlan Laboratories Models, S.L.) ad libitum. Animals were anesthetized with isoflurane and the test article (80 ul, 1% solution in DMSO:acetone 50:50) was administered to the outer surface of each of the ears of between 2 and 5 mice twice a day for five days by dermal application using a micropipette tip (a little volume of the solution was also applied on the inner side of the ears). All animals were monitored daily for reaction to the treatment, signs of illness, and behavioral changes. Body weights were recorded before the first administration and immediately prior to sacrifice. Approximately 12 to 16 hours after the final administration on day 5 the mice were sacrificed by i.p. injection of sodium pentobarbital (200 mg/kg) and the ears were collected. Each ear was sectioned into two halves. For each animal, one-half of one ear was fixed, in neutral phosphate-buffered 4% formaldehyde solution (4% formalin). This trimmed section of the ear was then processed, embedded in paraffin wax and stored at room temperature. […]

For `COc1cccc2c(=O)c3c(ccc4ccccc43)oc12` [Compound O], the Toxicity threshold in the data set with HepG2 cells and in the data set with human sebocyte cells was more than 100 µM each time.

For `O=c1cc(-c2ccccc2)oc2ccc3ccccc3c12` [3-phenyl-1H-benzo[f]chromen-1-one, 3-Phenyl-1H-benzo[f]chromen-1-one], the “induction of the luciferase activity” value in data set [1] was “a significant induction”. In data set [2], the “induction of luciferase activity” value is “a significant induction”.

Regarding `O=c1c2cccc(O)c2oc2ccc3ccccc3c12` [Compound P], the EC50 (in general, the midpoint of the concentration-response curve) at 24 h in the data set on CYP1A1 [3] was determined as 2 µM; in the data set with CYP1A1 [4], 0.2 µM. Also, the Toxicity threshold with HepG2 cells and in the data set on human sebocyte cells was more than 100 µM throughout.

As for `COc1ccc2c(=O)c3c(ccc4ccccc43)oc2c1` [Compound M], a half-maximal effect in the data set with CYP1A1 [3] (EC50 at 24 h) was put at 3 µM. For the same molecule, the Toxicity threshold in the data set with HepG2 cells was more than 30 µM; in the data set on human sebocyte cells, 50 µM.

For the molecule `COc1ccc2oc3ccc4ccccc4c3c(=O)c2c1` [Compound K], the EC50 at 24 h in the data set with CYP1A1 [3] and in the data set with CYP1A1 [4] was 0.5 µM throughout. The Toxicity threshold was more than 100 µM with HepG2 cells and more than 50 µM in the data set with human sebocyte cells.

Consider `O=c1c2cc(O)ccc2oc2ccc3ccccc3c12` [Compound L], for which the EC50 at 24 h in the data set on CYP1A1 [3] amounted to 0.6 µM; in the data set with CYP1A1 [4], 0.5 µM. For the same molecule, the Toxicity threshold was more than 100 µM in the data set with HepG2 cells and more than 50 µM in the data set with human sebocyte cells.

As to `O=c1c2ccc(O)cc2oc2ccc3ccccc3c12` [Compound N], the concentration for a half-maximal effect (EC50) at 24 h with CYP1A1 [3] is 1.5 µM. For the same molecule, the Toxicity threshold was more than 30 µM in the data set on HepG2 cells and more than 50 µM with human sebocyte cells.

In the case of `O=c1c2ccccc2oc2ccc3ccccc3c12` [Compound C], the “induction of CYP1A1 mRNA (in words)” value in the data set on CYP1A1 mRNA was “potent inducer”. The EC50 at 24 h came to 2.5 µM in the data set with CYP1A1 [3] and 0.2 µM in the data set on CYP1A1 [4]. The Toxicity threshold in the data set on HepG2 cells and in the data set with human sebocyte cells was more than 30 µM throughout. The “number of differentiated sebocytes” value in the data set on sebaceous glands is reported as “a reduction”. Further, in the data set on sebaceous glands, the “number of sebaceous glands” value was “a clear reduction”.

The record behind these values is patent publication US20180185325A1, “12H-BENZO[b]XANTHEN-12-ONES, COMPOSITIONS CONTAINING, AND USES OF, SAME” (Thesan Pharmaceuticals, Inc., priority 2015, published 2018).
